{"source": "the supplement of paper PMC10307832", "experiment_in_all_cases": "relative viability (nuclei count vs DMSO), 5 days (fraction); higher = more cells survive", "key": {"[1]": {"compound": "C1COCCN1C2=NC(=NC3=C2OC4=C3C=CC=N4)C5=CC(=CC=C5)NC(=O)C6=CN=C(C=C6)N + CC1(C)CCC(c2ccc(Cl)cc2)=C(CN2CCN(c3ccc(C(=O)NS(=O)(=O)c4ccc(N[C@H](CCN5CCOCC5)CSc5ccccc5)c(S(=O)(=O)C(F)(F)F)c4)cc3)CC2)C1 [Navitoclax] (partner 0.5 µM)", "summary_of_the_method": "(§1)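 Values are medians from duplicate plates. Each reflects relative viability, defined as the nuclei count of treated wells over that of vehicle wells. Lung cancer cell lines in 1536-well plates were pin-tool dosed one day after seeding with one drug alone or with a fixed anchor-drug dose plus five library-drug doses (not always all listed) in √10 steps, then fixed, stained and imaged at 4× after 5 days.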"}, "SGI-1776 + Palbociclib": {"compound": "CN1CCC(CNc2ccc3ncc(-c4cccc(OC(F)(F)F)c4)n3n2)CC1 [SGI-1776] + CC(=O)c1c(C)c2cnc(Nc3ccc(N4CCNCC4)cn3)nc2n(C2CCCC2)c1=O [Palbociclib] (partner 0.5 µM)", "summary_of_the_method": "as §1"}, "SGI-1776 + Navitoclax": {"compound": "CN1CCC(CNc2ccc3ncc(-c4cccc(OC(F)(F)F)c4)n3n2)CC1 [SGI-1776] + CC1(C)CCC(c2ccc(Cl)cc2)=C(CN2CCN(c3ccc(C(=O)NS(=O)(=O)c4ccc(N[C@H](CCN5CCOCC5)CSc5ccccc5)c(S(=O)(=O)C(F)(F)F)c4)cc3)CC2)C1 [Navitoclax] (partner 0.5 µM)", "summary_of_the_method": "as §1"}, "Entinostat + Pemetrexed": {"compound": "Nc1ccccc1NC(=O)c1ccc(CNC(=O)OCc2cccnc2)cc1 [Entinostat] + Nc1nc2[nH]cc(CCc3ccc(C(=O)N[C@@H](CCC(=O)O)C(=O)O)cc3)c2c(=O)[nH]1 [Pemetrexed] (partner 0.2 µM)", "summary_of_the_method": "as §1"}}}
{"cell line": "NCI-H460", "values": [{"measurement": "relative viability", "setting": "[1]; first compound 0.02 µM", "result": 1.38}, {"measurement": "relative viability", "setting": "[1]; first compound 0.06325 µM", "result": 1.47}, {"measurement": "relative viability", "setting": "[1]; first compound 0.2 µM", "result": 1.19}, {"measurement": "relative viability", "setting": "[1]; first compound 0.6325 µM", "result": 0.957}, {"measurement": "relative viability", "setting": "[1]; first compound 2 µM", "result": 0.0442}, {"measurement": "relative viability", "setting": "SGI-1776 + Palbociclib; first compound 0.08 µM", "result": 0.243}, {"measurement": "relative viability", "setting": "SGI-1776 + Palbociclib; first compound 0.8 µM", "result": 0.133}, {"measurement": "relative viability", "setting": "SGI-1776 + Palbociclib; first compound 2.53 µM", "result": 0.121}, {"measurement": "relative viability", "setting": "SGI-1776 + Palbociclib; first compound 8 µM", "result": 0.151}, {"measurement": "relative viability", "setting": "SGI-1776 + Navitoclax; first compound 0.08 µM", "result": 1.12}, {"measurement": "relative viability", "setting": "SGI-1776 + Navitoclax; first compound 0.8 µM", "result": 1.13}, {"measurement": "relative viability", "setting": "SGI-1776 + Navitoclax; first compound 2.53 µM", "result": 1.07}, {"measurement": "relative viability", "setting": "SGI-1776 + Navitoclax; first compound 8 µM", "result": 1.19}, {"measurement": "relative viability", "setting": "Entinostat + Pemetrexed; first compound 0.02 µM", "result": 0.0727}, {"measurement": "relative viability", "setting": "Entinostat + Pemetrexed; first compound 0.06325 µM", "result": 0.068}, {"measurement": "relative viability", "setting": "Entinostat + Pemetrexed; first compound 0.2 µM", "result": 0.076}, {"measurement": "relative viability", "setting": "Entinostat + Pemetrexed; first compound 0.6325 µM", "result": 0.0606}, {"measurement": "relative viability", "setting": "Entinostat + Pemetrexed; first compound 2 µM", "result": 0.041}]}
